Data: publication PMC3876124, “Identification and Biochemical Characterization of Protein Phosphatase 5 from the Cantharidin-Producing Blister Beetle, Epicauta chinensis” (International Journal of Molecular Sciences, 2013)
Read-outs that look alike come from different tables or passages of the source.

Target: T1, Protein phosphatase 5 (EcPP5, rEcPP5) (Epicauta chinensis, UniProt W0FW71)
T1 construct: recombinant full ORF (499 aa), N-terminal His6 tag, E. coli expressed
T1 sequence (W0FW71 1-499): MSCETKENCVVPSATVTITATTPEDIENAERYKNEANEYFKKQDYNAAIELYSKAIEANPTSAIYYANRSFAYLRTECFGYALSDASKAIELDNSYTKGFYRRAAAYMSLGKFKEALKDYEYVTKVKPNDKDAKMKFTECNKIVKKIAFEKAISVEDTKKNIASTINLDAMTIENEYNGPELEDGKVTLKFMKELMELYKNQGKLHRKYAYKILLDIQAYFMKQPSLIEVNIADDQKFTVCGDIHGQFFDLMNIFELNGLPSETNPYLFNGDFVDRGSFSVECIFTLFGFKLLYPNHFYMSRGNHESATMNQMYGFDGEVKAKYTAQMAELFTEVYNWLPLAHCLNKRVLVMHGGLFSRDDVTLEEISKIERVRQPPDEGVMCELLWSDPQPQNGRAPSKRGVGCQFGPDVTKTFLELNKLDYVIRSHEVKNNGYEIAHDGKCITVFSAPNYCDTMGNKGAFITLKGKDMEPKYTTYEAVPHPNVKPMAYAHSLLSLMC
Assay: pNPP phosphatase assay, dose-response, purified enzyme
Type: biochemical

| SMILES | IC50 [µM] | IC50 (read-out: IC50) [µM] |
| --- | --- | --- |
| C[C@@]12C(=O)OC(=O)[C@]1(C)[C@H]1CC[C@@H]2O1 [cantharidin] | 3.19 |  |
| O=C(O)[C@@H]1[C@H](C(=O)O)[C@H]2CC[C@@H]1O2 [endothall] | 28.4 |  |
| O=C1OC(=O)[C@H]2[C@@H]1[C@@H]1CC[C@H]2O1 [norcantharidin] |  | 25.7 |
| C=C1[C@@H](O)[C@@H]2O[C@]3(CC[C@H](/C=C/[C@@H](C)[C@@H]4CC(C)=C[C@@]5(O[C@H](C[C@@](C)(O)C(=O)O)CC[C@H]5O)O4)O3)CC[C@H]2O[C@@H]1[C@@H](O)C[C@H](C)[C@H]1O[C@@]2(CCCCO2)CC[C@H]1C [okadaic acid] | 0.19 |  |
